Results on five compounds are retold here after patent US6444470B1, “Transformation-enhancing compositions and methods of use” (Pioneer Hi-Bred International, Inc., priority 1999, dated 2002).

SMILES strings stand for the structures. Where two headings read alike, the source gives them in different places.

Assay [1] relates to maize ears. Put plainly: Lanolin-paste application to ears, then particle bombardment transformation. It counts as in vivo. Conditions: for 21 Day Callus Response / 42 Day Callus Response / Regenerable Colonies / Plants Transformed: 0.5% in lanolin paste on half an ear, three days after pollination; for Plants Transformed: particle bombardment; for recovery of regenerable colonies and transformed plants (in words): lanolin paste, versus lanolin controls and non-treated control. The source says: Transformation-enhancing compounds were also introduced via lanolin. kLanolin paste was typically applied at a mass of 1 gram per ear. Husks were peeled back, but not removed, silks were removed, and the lanolin mixed with the compound was applied to the pericarp of the developing seed using a spatula. Ears were divided into halves longitudinally: one half would received lanolin with the compound and the other half received only lanolin.
Al media recipes are in the Table 10-18.
The effects of pre-harvest ear treatments of zeatin riboside and 2,4-D on maize transformation were investigated. Both agents were applied to separate ears at three days after pollination in a lanolin paste. The method employed for applying the transformation-enhancing agents of the invention to ears in lanolin paste is described in Example I. Ears were divided into halves longitudinally with one half of the ear receiving lanolin with zeatin riboside or 2,4-D and the other half receiving only lanolin. An additional ear that was not treated was used as a control.

In assay [2] the test system is maize elite inbred N46. Put plainly: Pre-harvest ear injection, then Agrobacterium-mediated transformation, inbred N46. Conditions: for percent of transformed colonies relative to the no-infusion control (in words): pre-harvest ear injection. It counts as in vivo. The protocol:
(§1) Ears from greenhouse-grown or field-grown maize elite inbreds, P38 and N46, were treated with one of the following agents or combinations of agents at three days after pollination: dicamba, hormone cocktail, 2,4-D (2,4-dichlorophenoxyacetic acid), callus medium, water, ABA, Pluronic F68, proline mix, ACC, AVG, salts cocktail 4, salts cocktail 2 (Gamborg et al. (1968) Exp. Cell Res. 50:151), salts cocktail 1 (Murashige and Skoog (1962) Physiol. Plant. 15:473), salts cocktail 3 (Chu et al. (1975) Scientia Sinic. 18:659), 2,4D+salts cocktail 1, 2,4-D+salts cocktail 3, 2,4-D+dicamba and dicamba+ACC. The solutions were filter sterilized before applying to the ears at a rate of 10 mL/ear. The solutions were applied to the ears by injecting between the silks and husks at three days post pollination. Care was taken not to disrupt the ears.
(§2) Agrobacterium-mediated transformation of maize was also employed. See, U.S. application Ser. No. 08/788,018, herein incorporated by reference.
(§3) The ear injection was conducted as described in Example I. Other synthetic auxins were tested for their effects on the transformation of N46 and P38 maize.
(§4) An endogenous plant growth regulator, abscisic acid (ABA), and other compounds known to influence plant growth were tested for their effects on maize transformation when applied to ears at four days after pollination using the injection method described in Example I. Additionally, the effect of the injection of water was also tested. […] ACC is a product of the reaction catalyzed by ACC synthase and a substrate of the reaction catalyzed by ACC oxidase, the ethylene-forming enzyme. AVG, on the other hand, is an inhibitor of ACC synthase.
Several nitrogen-containing treatments were applied to ears at three days after pollination. The treatments employed are salt formulations that are commonly used in plant tissue culture media including salts cocktail 4, salts cocktail 2, salts cocktail 1 and salts cocktail 3. […]

Assay [3] concerns maize elite inbred P38. As to the kind of experiment: Pre-harvest ear injection, then Agrobacterium-mediated transformation, inbred P38. Type of assay: in vivo. The protocol: as §1, §2, §3, §4
Several nitrogen-containing treatments were applied to ears at three days after pollination. The treatments employed are salt formulations that are commonly used in plant tissue culture media including salts cocktail 4, salts cocktail 2, salts cocktail 1 and salts cocktail 3.
Finally, some combination treatments were examined for their effects on the transformation of N46 and P38 maize (Table 7).

Assay [4] relates to maize immature embryos. Conditions: for 21 Day Callus Response / 42 Day Callus Response / Colonies to Plants / Colonies to Regeneration / Colonies with GUS Expression: 100 μM ear pre-treatment. The method, then:
(§5) For transformation by particle bombardment, maize ears were harvested at ten days after pollination and surface sterilized in 50% CHLOROX™ laundry bleach plus 0.5% Tween 20 surfactant for 20 minutes, and rinsed two times with sterile water. The immature embryos were excised and placed embryo axis side down (scutellum side up), 25 embryos per plate, on 604 medium, incubated at 28° C. in the dark for three days. Prior to bombardment, all embryos were transferred to plates containing 604 medium and 15% sucrose and then aligned within the 2.5-cm target zone in preparation for bombardment. Al media recipes are in the Table 10-18.
(§6) The sample plates were bombarded at level #4 in a Biorad PDS-1000 Helium gun. All samples received a single shot at 650 PSI, with a total of six aliquots taken from each tube of prepared particles/DNA. Following bombardment the embryos were maintained on 604 medium +15% sucrose for three days in the dark, and then transferred to 604S medium with 3 mg/L bialaphos, maintained for three weeks on 3 mg/L bialaphos, and then transferred to 604J at 5 mg/L bialaphos. Once herbicide-resistant colonies were well established and ready for regeneration, approximately eight weeks after bombardment, the herbicide-resistant colonies were transferred to 288O regeneration medium containing 3 mg/L bialaphos, maintained in the dark or seven days, and then transferred to the light at 28° C. for shoot formation and elongation. Callus response, colony and plant recovery and GUS gene expression were monitored during the course of the experiments.
Prior to bombardment, freshly excised embryos were placed onto either 560P, 601H, or 604 medium and incubated at 28° C. in the dark for three days. Prior to bombardment, all embryos were transferred to 604 with 15% sucrose. […] Colonies were transferred to regeneration medium containing 3 mg/L Bialaphos after 8-9 weeks in culture.

Assay [5] deals with maize elite inbred P38. The protocol: as §1, §5
A plasmid vector comprising the coding region of uidA operably linked to a ubiquitin promoter was made. This plasmid DNA plus plasmid DNA containing a BAR selectable marker gene operably linked to the double 35S promoter was precipitated onto 1.1 μm (average diameter) tungsten pellets using a CaCl2 precipitation procedure as follows:
The final mixture was sonicated briefly and allowed to incubate under constant vortexing for 10 minutes. After the precipitation period, the tubes were centrifuged briefly, liquid removed, washed with […] 100% ethanol, and centrifuged for 30 seconds. Again the liquid was removed, and 60 μL 100% ethanol was added to the final tungsten particle pellet. For particle gun bombardment, the tungsten/DNA particles were briefly sonicated and 10 μL spotted onto the center of each macrocarrier and allowed to dry about two minutes before bombardment.
as §6
The effects of injecting into ears three days after pollination 10 mL of a 100 μM of dicamba, an auxin analogue, on maize transformation was investigated.

The mark [6] stands for this setting: Table 5, ear injection three days after pollination, 10 mL/ear.
The mark [7] stands for this setting: Table 6, ear injection four days after pollination.
Where [8] appears, read: initial culture medium 560P, 79 embryos.
The mark [9] stands for this setting: initial culture medium 601H, 84 embryos.
Where [10] appears, read: initial culture medium 604, 128 embryos.
Setting [11] is: 100 μM ear injection three days after pollination, of 385 embryos.
Where [12] appears, read: 10 mL of 100 μM injected into ears three days after pollination, of 385 embryos.

In the case of `O=C(O)COc1ccc(Cl)cc1Cl` [2,4-D, 2,4-dichlorophenoxyacetic acid], in assay [1], the “21 Day Callus Response” value came to 15.4%, the “42 Day Callus Response” value turned out to be 12.5%, the “Regenerable Colonies” value is reported as 1.5% and the “Plants Transformed” value was determined as 1.5%. In addition, the “recovery of regenerable colonies and transformed plants (in words)” value in assay [1] is “Regenerable colonies and transformed maize plants were recovered”. In assay [2] (setting [6]), the “Number of GUS Positive Colonies” value is given as 4 and the “Percent Colony Transformation” value is 2.70%. Also, in assay [3] (setting [6]), the “Number of GUS Positive Colonies” value is on record as 2 and the “Percent Colony Transformation” value was determined as 4.20%. In assay [3] (pre-harvest ear injection), the “percent of transformed colonies relative to the no-infusion control (in words)” value is listed as “significantly greater percentages of transformed colonies than the control”.
Turning to `CC1=CC(=O)CC(C)(C)[C@@]1(O)/C=C/C(C)=C\C(=O)O` [ABA, abscisic acid], in assay [2] (setting [7]), the “Number of GUS Positive Colonies” value is 25 and the “Percent Colony Transformation” value is reported as 20%. Also, in assay [2], the “percent of transformed colonies relative to the no-infusion control (in words)” value is listed as “largest increase in percent colony transformation above the control”. In assay [3] (setting [7]), the “Number of GUS Positive Colonies” value turned out to be 0 and the “Percent Colony Transformation” value stood at 0%.
Consider `NC1(C(=O)O)CC1` [ACC, aminocyclopropane-1-carboxylic acid], for which, in assay [2] (setting [7]), the “Number of GUS Positive Colonies” value was 12 and the “Percent Colony Transformation” value was 6.80%. In assay [3] (setting [7]), the “Number of GUS Positive Colonies” value amounted to 0 and the “Percent Colony Transformation” value worked out at 0%.
For `C/C(=C\CNc1ncnc2c1ncn2[C@@H]1O[C@H](CO)[C@@H](O)[C@H]1O)CO` [Zeatin riboside, zeatin riboside], in assay [1], the “21 Day Callus Response” value is 9.4%, the “42 Day Callus Response” value is reported as 9.4%, the “Regenerable Colonies” value stood at 0.6% and the “Plants Transformed” value amounted to 0.6%. In addition, the “recovery of regenerable colonies and transformed plants (in words)” value in assay [1] is “Regenerable colonies and transformed maize plants were recovered”.
Take `COc1c(Cl)ccc(Cl)c1C(=O)O` [dicamba]: in assay [4] (setting [8]), the “21 Day Callus Response” value is 12.7%(10), the “42 Day Callus Response” value is 24%(19), the “Colonies to Plants” value was 1.3%(1) and the “Colonies to Regeneration” value was 2.5%(2). For the same compound, the “Colonies with GUS Expression” value in assay [4] (setting [8]) is recorded as 2.5%(2). In addition, in assay [4] (setting [9]), the “21 Day Callus Response” value is recorded as 17.9%(16), the “42 Day Callus Response” value was 16.5%(14), the “Colonies to Plants” value is reported as 0% and the “Colonies to Regeneration” value is 4.8%(4). In addition, the “Colonies with GUS Expression” value in assay [4] (setting [9]) is given as 2.4%(2). For the same compound, in assay [4] (setting [10]), the “21 Day Callus Response” value is given as 23.4%(30), the “42 Day Callus Response” value is 33%(42), the “Colonies to Plants” value is 0% and the “Colonies to Regeneration” value is reported as 11.7%(15). Moreover, the “Colonies with GUS Expression” value in assay [4] (setting [10]) is reported as 4.7%(6). Further, in assay [4] (100 μM pre-treatment / 560P medium), the “colonies capable of regeneration” value is on record as “one”. For the same compound, in assay [2] (setting [6]), the “Number of GUS Positive Colonies” value is 89 and the “Percent Colony Transformation” value turned out to be 9.50%. Besides, the “percent of transformed colonies relative to the no-infusion control (in words)” value in assay [2] was “superior transformation results”. Moreover, in assay [5] (setting [11]), the “Colonies Expressing GUS” value was found to be 8.6%, the “Colonies to Plants” value turned out to be 4.2% and the “Colonies to Regeneration” value turned out to be 29.1%. For the same compound, in assay [5] (100 μM ear injection three days after pollination, particle bombardment, of 385 embryos), the “Plants Transformed” value was 3.11%. Further, in assay [5] (100 μM pre-treatment, of the plants recovered), the “colonies that produced escapes” value is recorded as “two”. Moreover, in assay [5] (setting [12]), the “21 Day Callus Response” value is on record as 37.9%, the “42 Day Callus Response” value is recorded as 40% and the “56 Day Callus Response” value amounted to 32.2%. Besides, the “Type I embryogenic callus response rate versus non pre-treated control (in words)” value in assay [5] (ears pre-treated with 100 μM) was “higher early in the experiment, and was maintained over the course of the study”. Further, in assay [3] (setting [6]), the “Number of GUS Positive Colonies” value is 11 and the “Percent Colony Transformation” value came to 1.10%.
